# Assay: DPPH free-radical test of antioxidant potential
# Assay type: biochemical
# Text: Objective: analyzing the antioxidant potential of the complex of the present invention in comparison with other known antioxidant system compositions. A solution of 0.004% of DPPH (diphenyl […] hydrazyl) in ethanol was used. The action of DPPH on ethanol generates free radicals, forming colorful aducts, which are spectrophotometrically detected. Further, a solution of BHT in ethanol was used and its solutions described in the table below. Tubes with the DPPH solution and the compositions of the above products were prepared.
smiles,measurement,setting,value
"O=C1O[C@H]([C@@H](O)CO)C(O)=C1O [vitamin C, ascorbic acid]",effect of vitamin C on the potential of the antioxidant complex at determined concentrations,at determined concentrations of vitamin C,causes reduction of said potential
same,effect of the presence of vitamin C on the potential of the antioxidant complex,vitamin C added to the antioxidant complex composition,does not improve the potential
